One assay deals with T1, PI3Kδ (p110δ/p85α) (Homo sapiens, UniProt O00329).
T1 construct: purchased Millipore (Bedford, Mass.)
Description: PI3Kδ scintillation proximity assay. Format: biochemical. Put shortly: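 Purified p110δ/p85α (4 nM) phosphorylated 20 μM diC8-PIP2 with 20 μM ATP plus [γ-33P]ATP in MOPS pH 6.7, MgCl2, DTT, CHAPS, 0.5% DMSO, 210 minutes at room temperature. Stopped with EDTA/ATP quench containing WGA SPA beads; scintillation counted. IC50 from percent control activity versus log inhibitor concentration.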
Background: SPA uses beads or plates that emit light when radiolabelled molecules are held near them.

In assay [1] the test system is Pfeiffer cell line (diffuse large B cell lymphoma). Description: Pfeiffer cell proliferation assay. Format: cell-based. As to the method: Pfeiffer cell line (diffuse large B cell lymphoma) was purchased from ATCC (Manassas, Va.) and maintained in the culture medium recommended (RPMI and 10% FBS). To measure the anti-proliferation activity of the compounds, the Pfeiffer cells were plated with the culture medium (2×10^3 cells/well/per 200 μl) into 96-well ultra-low binding plates (Corning, Corning, N.Y.), in the presence or absence of a concentration range of test compounds. […]

Where [2] appears, read: Homo sapiens, Pfeiffer, first of two isolated isomers.
Setting [3] is: Homo sapiens, Pfeiffer, second of two isolated isomers.

Structures are written as SMILES. Where two headings read alike, the source gives them in different places.

T1 sequence (O00329 whole entry): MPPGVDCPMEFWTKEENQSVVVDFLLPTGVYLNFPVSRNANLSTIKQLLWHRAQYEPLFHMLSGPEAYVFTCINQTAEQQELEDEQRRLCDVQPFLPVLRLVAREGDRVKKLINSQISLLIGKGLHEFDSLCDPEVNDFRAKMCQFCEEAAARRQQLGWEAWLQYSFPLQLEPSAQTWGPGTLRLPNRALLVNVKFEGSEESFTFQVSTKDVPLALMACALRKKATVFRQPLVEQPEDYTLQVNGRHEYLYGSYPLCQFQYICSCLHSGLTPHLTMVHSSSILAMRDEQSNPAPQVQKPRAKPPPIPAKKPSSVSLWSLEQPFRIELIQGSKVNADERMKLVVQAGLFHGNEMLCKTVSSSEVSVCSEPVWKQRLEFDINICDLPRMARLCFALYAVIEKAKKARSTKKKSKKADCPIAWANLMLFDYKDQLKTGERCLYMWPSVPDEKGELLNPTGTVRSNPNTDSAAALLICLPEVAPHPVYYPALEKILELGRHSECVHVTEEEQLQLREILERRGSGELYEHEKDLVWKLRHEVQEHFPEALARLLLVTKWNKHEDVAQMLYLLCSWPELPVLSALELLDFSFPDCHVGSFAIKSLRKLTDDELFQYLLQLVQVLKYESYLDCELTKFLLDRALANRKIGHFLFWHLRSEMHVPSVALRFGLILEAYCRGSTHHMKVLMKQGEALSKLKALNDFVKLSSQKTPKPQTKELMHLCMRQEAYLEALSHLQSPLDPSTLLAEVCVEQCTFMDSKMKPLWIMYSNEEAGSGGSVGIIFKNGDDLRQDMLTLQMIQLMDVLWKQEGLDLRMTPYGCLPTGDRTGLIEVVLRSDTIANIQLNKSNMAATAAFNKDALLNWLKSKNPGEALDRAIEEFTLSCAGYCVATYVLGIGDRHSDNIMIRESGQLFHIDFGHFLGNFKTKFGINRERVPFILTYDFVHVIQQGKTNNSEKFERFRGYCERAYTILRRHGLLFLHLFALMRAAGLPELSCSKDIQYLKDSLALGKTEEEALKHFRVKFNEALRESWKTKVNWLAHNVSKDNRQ
T1 sequence (P27986 whole entry partner): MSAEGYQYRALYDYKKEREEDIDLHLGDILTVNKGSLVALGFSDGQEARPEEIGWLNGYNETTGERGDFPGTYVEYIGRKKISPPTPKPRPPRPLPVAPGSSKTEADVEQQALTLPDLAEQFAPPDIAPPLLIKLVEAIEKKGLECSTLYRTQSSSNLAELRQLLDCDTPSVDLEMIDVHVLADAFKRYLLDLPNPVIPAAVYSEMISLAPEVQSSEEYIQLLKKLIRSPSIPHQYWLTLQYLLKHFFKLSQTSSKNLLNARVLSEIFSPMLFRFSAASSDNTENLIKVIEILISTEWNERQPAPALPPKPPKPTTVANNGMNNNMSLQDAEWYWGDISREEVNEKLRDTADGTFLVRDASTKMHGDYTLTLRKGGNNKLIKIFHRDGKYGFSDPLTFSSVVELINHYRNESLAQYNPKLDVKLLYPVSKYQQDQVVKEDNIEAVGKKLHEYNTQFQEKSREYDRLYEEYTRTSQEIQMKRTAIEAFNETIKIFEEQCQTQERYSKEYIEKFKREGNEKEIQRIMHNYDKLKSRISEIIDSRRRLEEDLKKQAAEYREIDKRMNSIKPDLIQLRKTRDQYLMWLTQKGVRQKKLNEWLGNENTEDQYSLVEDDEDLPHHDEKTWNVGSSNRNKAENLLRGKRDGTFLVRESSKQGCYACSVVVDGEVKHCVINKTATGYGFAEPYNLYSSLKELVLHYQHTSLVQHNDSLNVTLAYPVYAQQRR

Take `Cc1cc(C(C)Nc2ncnc3[nH]cnc23)c(-c2cccc(F)c2)c2nnccc12` (single isomer, unassigned) [Example 36, N-{1-[8-(3-fluorophenyl)-5-methylcinnolin-7-yl]ethyl}-9H-purin-6-amine]: the IC50 (against PI3Kδ (p110δ/p85α); in assay [1] ([3H]-thymidine incorporation)) was below 50 nM in each case.

Regarding `Cc1cc(C(C)Nc2ncnc3[nH]cnc23)c(-c2cccc(F)c2)c2nnccc12` (single isomer, unassigned) [Example 37, N-{1-[8-(3-fluorophenyl)-5-methylcinnolin-7-yl]ethyl}-9H-purin-6-amine], the IC50 (against PI3Kδ (p110δ/p85α); in assay [1] ([3H]-thymidine incorporation)) was 500 to 1000 nM each time.

Turning to `CC(Nc1ncnc2[nH]cnc12)c1cc(Cl)c2cccnc2c1N1CCC[C@H](O)C1` (stereo partly drawn) [Example 48, (3S)-1-{5-Chloro-7-[1-(9H-purin-6-ylamino)ethyl]quinolin-8-yl}piperidin-3-ol], the IC50 against PI3Kδ (p110δ/p85α) (separated isomer, 1st peak) is below 50 nM; on PI3Kδ (p110δ/p85α) (separated isomer, 2nd peak), above 1000 nM; in assay [1] (setting [2]) it was above 1000 nM; in assay [1] (setting [3]), above 1000 nM.

Turning to `CC(Nc1ncnc2[nH]cnc12)c1cc(F)c2cccnc2c1N1CC[C@@H](O)C1` (stereo partly drawn) [Example 53, (3R)-1-{5-fluoro-7-[1-(9H-purin-6-ylamino)ethyl]quinolin-8-yl}pyrrolidin-3-ol], the IC50 was above 1000 nM against PI3Kδ (p110δ/p85α) (separated isomer, 1st peak); 100 to 250 nM at PI3Kδ (p110δ/p85α) (separated isomer, 2nd peak); 250 to 500 nM in assay [1] (setting [3]).

Regarding `CC(Nc1ncnc2[nH]cnc12)c1cc(Cl)c2cccnc2c1N1CCCC(CO)C1` (stereo not drawn) [Example 63, (1-{5-Chloro-7-[1-(9H-purin-6-ylamino)ethyl]quinolin-8-yl]piperidin-3-yl)methanol tris(trifluoroacetate)], the IC50 against PI3Kδ (p110δ/p85α) (separated isomer, 1st peak) is 100 to 250 nM; against PI3Kδ (p110δ/p85α) (separated isomer, 2nd peak), 100 to 250 nM; in assay [1] (setting [2]), above 1000 nM; in assay [1] (setting [3]), above 1000 nM.

On to `COC1CCCN(c2c(C(C)Nc3ncnc4[nH]cnc34)cc(Cl)c3cccnc23)C1` (stereo not drawn) [Example 67, N-{1-[5-Chloro-8-(3-methoxypiperidin-1-yl)quinolin-7-yl]ethyl}-9H-purin-6-amine tris(trifluoroacetate)], for which the half-inhibitory concentration (IC50) was in the range of 100 to 250 nM at PI3Kδ (p110δ/p85α) (separated isomer, 1st peak); 250 to 500 nM at PI3Kδ (p110δ/p85α) (separated isomer, 2nd peak); 100 to 250 nM in assay [1] (setting [2]); 100 to 250 nM in assay [1] (setting [3]).

`COC1CCN(c2c(C(C)Nc3ncnc4[nH]cnc34)cc(Cl)c3cccnc23)C1` (stereo not drawn) [Example 68, N-{1-[5-Chloro-8-(3-methoxypyrrolidin-1-yl)quinolin-7-yl]ethyl}-9H-purin-6-amine tris(trifluoroacetate)]: the IC50 at PI3Kδ (p110δ/p85α) (separated isomer, 1st peak) was 50 to 100 nM; against PI3Kδ (p110δ/p85α) (separated isomer, 2nd peak) it was below 50 nM; in assay [1] (setting [2]) it was 100 to 250 nM; in assay [1] (setting [3]) it was 50 to 100 nM.

With `CC(Nc1ncnc2[nH]cnc12)c1cc(Cl)c2cccnc2c1N1CCC(Oc2ccccc2)CC1` (stereo not drawn) [Example 75, N-{1-[5-Chloro-8-(4-phenoxypiperidin-1yl)quinolin-7-yl]ethyl}-9H-purin-6-amine bis(trifluoroacetate)], the results for the half-maximal inhibitory concentration (IC50) (against PI3Kδ (p110δ/p85α); in assay [1] (setting [3])) were above 1000 nM and 250 to 500 nM, respectively.

Regarding `CC(C)C(=O)N[C@H]1CCN(c2c(C(C)Nc3ncnc4[nH]cnc34)cc(Cl)c3cccnc23)C1` (stereo partly drawn) [Example 78, N-((3S)-1-{5-Chloro-7-[1-(9H-purin-6-ylamino)ethyl]quinolin-8-yl}pyrrolidin-3-yl)-2-methylpropanamide tris(trifluoroacetate)], the IC50 against PI3Kδ (p110δ/p85α) (separated isomer, 1st peak) is above 1000 nM; against PI3Kδ (p110δ/p85α) (separated isomer, 2nd peak), below 50 nM; in assay [1] (setting [3]), 500 to 1000 nM.

For the compound `CC(Nc1ncnc2[nH]cnc12)c1cc(Cl)c2cccnc2c1N1CCN(C(=O)c2ccccc2)CC1` (stereo not drawn) [Example 89, N-(1-[8-(4-Benzoylpiperazin-1-yl)-5-chloroquinolin-7-yl]ethyl}-9H-purin-6-amine bis(trifluoroacetate)], the concentration for half-maximal inhibition (IC50) on PI3Kδ (p110δ/p85α) was in the range of 50 to 100 nM.

`CC(Nc1ncnc2[nH]cnc12)c1cc(Cl)c2cccnc2c1N1CCN(CC(=O)N(C)C)CC1` (stereo not drawn) [Example 90, 2-(4-{5-Chloro-7-[1-(9H-purin-6-ylamino)ethyl]quinolin-8-yl}piperazin-1-yl)-N,N-dimethylacetamide tris(trifluoroacetate)]: the IC50 against PI3Kδ (p110δ/p85α) was below 50 nM.

In the case of `CC(Nc1ncnc2[nH]cnc12)c1cc(Cl)c2cccnc2c1N1CCN(C(=O)c2ccc(F)cc2)CC1` (stereo not drawn) [Example 91, N-(1-{5-Chloro-8-[4-(4-fluorobenzoyl)piperazin-1-yl]quinolin-7-yl}ethyl)-9H-purin-6-amine bis(trifluoroacetate)], the IC50 against PI3Kδ (p110δ/p85α) lay within 100 to 250 nM.

`CC(Nc1ncnc2[nH]cnc12)c1cc(Cl)c2cccnc2c1N1CCN(C(=O)c2cccc(F)c2)CC1` (stereo not drawn) [Example 92, N-(1-{5-Chloro-8-[4-(3-fluorobenzoyl)piperazin-1-yl]quinolin-7-yl}ethyl)-9H-purin-6-amine bis(trifluoroacetate)] returned an IC50 against PI3Kδ (p110δ/p85α) of 100 to 250 nM.

In the case of `CC(Nc1ncnc2[nH]cnc12)c1cc(Cl)c2cccnc2c1N1CCN(C(=O)c2ccccc2F)CC1` (stereo not drawn) [Example 93, N-(1-{5-Chloro-8-[4-(2-fluorobenzoyl)piperazin-1-yl]quinolin-7-yl}ethyl)-9H-purin-6-amine bis(trifluoroacetate)], the IC50 against PI3Kδ (p110δ/p85α) fell in the range of 250 to 500 nM.

For the compound `CC(=O)N1CCC(C(=O)N2CCN(c3c(C(C)Nc4ncnc5[nH]cnc45)cc(Cl)c4cccnc34)CC2)CC1` (stereo not drawn) [Example 94, N-[1-(8-{4-[(1-Acetylpiperidin-4-yl)carbonyl]piperazin-1-yl}-5-chloroquinolin-7-yl)ethyl]-9H-purin-6-amine bis(trifluoroacetate)], on PI3Kδ (p110δ/p85α), the IC50 is below 50 nM.

`CC(Nc1ncnc2[nH]cnc12)c1cc(Cl)c2cccnc2c1N1CCN(C(=O)c2ccccn2)CC1` (stereo not drawn) [Example 95, N-(1-{5-Chloro-8-[4-(pyridin-2-ylcarbonyl)piperazin-1-yl]quinolin-7-yl}ethyl)-9H-purin-6-amine tris(trifluoroacetate)] returned an IC50 against PI3Kδ (p110δ/p85α) below 50 nM.

Turning to `CC(Nc1ncnc2[nH]cnc12)c1cc(Cl)c2cccnc2c1N1CCN(C(=O)c2cccnc2)CC1` (stereo not drawn) [Example 96, N-(1-{5-Chloro-8-[4-(pyridin-3-ylcarbonyl)piperazin-1-yl]quinolin-7-yl}ethyl)-9H-purin-6-amine tris(trifluoroacetate)], at PI3Kδ (p110δ/p85α), the IC50 was below 50 nM.

In turn, `CC(Nc1ncnc2[nH]cnc12)c1cc(Cl)c2cccnc2c1N1CCN(C(=O)c2cnccn2)CC1` (stereo not drawn) [Example 97, N-(1-{5-Chloro-8-[4-(pyrazin-2-ylcarbonyl)piperazin-1-yl]quinolin-7-yl}ethyl)-9H-purin-6-amine bis(trifluoroacetate)] displayed an IC50 against PI3Kδ (p110δ/p85α) below 50 nM.

Take `CC(Nc1ncnc2[nH]cnc12)c1cc(Cl)c2cccnc2c1N1CCN(C(=O)c2ccncc2)CC1` (stereo not drawn) [Example 98, N-{1-[5-Chloro-8-(4-isonicotinoylpiperazin-1-yl)quinolin-7-yl]ethyl}-9H-purin-6-amine tris(trifluoroacetate)]: the IC50 against PI3Kδ (p110δ/p85α) was below 50 nM.

As for `Cc1cc(C(=O)N2CCN(c3c(C(C)Nc4ncnc5[nH]cnc45)cc(Cl)c4cccnc34)CC2)no1` (stereo not drawn) [Example 99, N-[1-(5-Chloro-8-{4-[(5-methylisoxazol-3-yl)carbonyl]piperazin-1-yl}quinolin-7-yl)ethyl]-9H-purin-6-amine bis(trifluoroacetate)], the half-maximal inhibitory concentration (IC50) at PI3Kδ (p110δ/p85α) was below 50 nM.

In turn, `Cc1noc(C)c1C(=O)N1CCN(c2c(C(C)Nc3ncnc4[nH]cnc34)cc(Cl)c3cccnc23)CC1` (stereo not drawn) [Example 100, N-[1-(5-Chloro-8-{4-[(3,5-dimethylisoxazol-4-yl)carbonyl]piperazin-1-yl}quinolin-7-yl)ethyl]-9H-purin-6-amine bis(trifluoroacetate)] yielded an IC50 against PI3Kδ (p110δ/p85α) below 50 nM.

At PI3Kδ (p110δ/p85α), `CC(Nc1ncnc2[nH]cnc12)c1cc(Cl)c2cccnc2c1N1CCN(C(=O)c2ccn(C)n2)CC1` (stereo not drawn) [Example 101, N-[1-(5-Chloro-8-{4-[(1-methyl-1H-pyrazol-3-yl)carbonyl]piperazin-1-yl}quinolin-7-yl)ethyl]-9H-purin-6-amine bis(trifluoroacetate)] registered an IC50 below 50 nM.

On to `CC(Nc1ncnc2[nH]cnc12)c1cc(F)c2cccnc2c1-c1cccc(F)c1` (stereo not drawn) [Example 102, N-{1-[5-fluoro-8-(3-fluorophenyl)quinolin-7-yl]ethyl}-9H-purin-6-amine], for which the IC50 against PI3Kδ (p110δ/p85α) (separated isomer, 1st peak) is below 50 nM; against PI3Kδ (p110δ/p85α) (separated isomer, 2nd peak), above 1000 nM.

Regarding `CC(Nc1ncnc2[nH]cnc12)c1cc(F)c2cccnc2c1N1CCN(C(=O)c2cnn(C)c2)CC1` (stereo not drawn) [Example 103, N-[1-(5-Fluoro-8-{4-[(1-methyl-1H-pyrazol-4-yl)carbonyl]piperazin-1-yl}quinolin-7-yl)ethyl]-9H-purin-6-amine bis(trifluoroacetate)], the IC50 at PI3Kδ (p110δ/p85α) is below 50 nM.

At PI3Kδ (p110δ/p85α), `CC(Nc1ncnc2[nH]cnc12)c1cc(Cl)c2conc2c1-c1cccc(F)c1` (stereo not drawn) [Example 104, N-{1-[4-Chloro-7-(3-fluorophenyl)-2,1-benzisoxazol-6-yl]ethyl}-9H-purin-6-amine] yielded an IC50 below 50 nM.

On PI3Kδ (p110δ/p85α), `CC(Nc1ncnc2[nH]cnc12)c1cc(Cl)c2cn[nH]c2c1-c1cccc(F)c1` (stereo not drawn) [Example 105, N-{1-[4-Chloro-7-(3-fluorophenyl)-1H-indazol-6-yl]ethyl}-9H-purin-6-amine] had an IC50 below 50 nM.

As for `CC(Nc1ncnc2[nH]cnc12)c1cc(Cl)c2cn[nH]c2c1-c1cc(F)cc(F)c1` (stereo not drawn) [Example 106, N-{1-[4-Chloro-7-(3,5-difluorophenyl)-1H-indazol-6-yl]ethyl)-9H-purin-6-amine], the IC50 at PI3Kδ (p110δ/p85α) was below 50 nM.

`CC(Nc1ncnc2[nH]cnc12)c1cc(Cl)c2cnn(C)c2c1-c1cc(F)cc(F)c1` (stereo not drawn) [Example 107] gave an IC50 on PI3Kδ (p110δ/p85α) below 50 nM.

One may read the IC50 as the concentration at which inhibition is half-maximal. A low value points to greater potency.
